The results in this text go back to PMC3787718 (Structure (London, England : 1993), 2013).

This experiment has as its target T1, GLIC (Gloeobacter violaceus ligand-gated ion channel) (Gloeobacter violaceus, UniProt Q7NDN8).
T1 sequence (Q7NDN8 44-359): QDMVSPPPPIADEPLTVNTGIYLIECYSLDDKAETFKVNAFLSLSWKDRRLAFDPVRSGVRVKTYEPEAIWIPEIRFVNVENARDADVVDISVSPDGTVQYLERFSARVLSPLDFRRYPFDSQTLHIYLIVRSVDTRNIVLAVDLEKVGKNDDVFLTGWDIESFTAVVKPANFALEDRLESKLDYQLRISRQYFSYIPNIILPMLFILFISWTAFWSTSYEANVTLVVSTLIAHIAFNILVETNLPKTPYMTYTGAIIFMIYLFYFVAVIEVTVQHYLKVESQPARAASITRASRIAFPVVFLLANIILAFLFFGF
As to the kind of experiment: two-electrode voltage clamp in Xenopus oocytes, inhibition of proton-activated. In kind it is cell-based. On the technique in general: Two-electrode voltage clamp holds a large cell at a set potential and records current.

As a reminder, the IC50 is the concentration that gives 50% inhibition. A low value points to greater potency.

Compound `FC(F)OC(F)C(F)(F)F` (stereo not shown) [DSF, desflurane] displayed a half-inhibitory concentration (IC50) of 1100 µM.
